No end group written: not given here.
Columns and labels:
[1] = test system: β-adrenergic receptor kinase; assay: Inhibition of rhodopsin phosphorylation by β-adrenergic receptor kinase in the presence of Gβγ; type: biochemical; conditions: peptide at 100 µM; 1 µM rhodopsin, 2.5 nM βARK-1, 20 nM Gβγ
Experimental: (§1) • Figure 1 Inhibition of GTPase activity of Go by His6-tagged phosducin and its N-terminally truncated variants. […] The size of the short form of PhLP is indicated by the line on the top. Analysis with nonlinear curve fitting gave the following IC50-values: phosducin 15±1 nM, phosducin(64-246) 33±3 nM, phosducin( 138-246) 25±2 nM, phosducin(172-246) 95±13 nM, phosducin(204-246) 240±20 nM. Data are mean ± SEM of 3 independent experiments • Figure 2 Direct binding of His6-tagged phosducin and phosducin(204-246) to Gβγ. […] After washing, the Gβγ retained in the pellet was detected by SDS-polyacrylamide gel electrophoresis and Western blotting with antibodies directed against Gβ. • Figure 3 Inhibition of G0GTPase activity by synthetic peptides (top) derived from the C-terminus of phosducin. […] The activity of βARK was determined using rhodopsin in rod outer segments the substrate as in Schroeder and Lohse 1996. […] Phospholipase C-β2 activity was determined with a truncated version of PLC-β2 (PLC-mut) as described by Dietrich et al. (1994). […] Activity is expressed as pmoles of inositol 1.4.5-triphosphate formed per minute. • Figure 5 Amide region of a 500 MHz WATERGATED NOESY spectrum of the peptide phosducin(204-231) in 10 mM Phosphate buffer containing 100 mM NaCI and 10% D2O at pH = 6.5 and 277 K. The mixing time used was 250 ms. […]

phospholipase C-β2 = assay: Inhibition of Gβγ-stimulated phospholipase C-β2 activity; type: biochemical; conditions: peptide at 100 µM; Gβγ 600 nM
Experimental: as §1

GDVESFLNEYGLLPEKEM [phosducin(215-232)]
antagonism of the stimulatory effects of Gβγ on the activity of the β-adrenergic receptor kinase [1]: antagonized
antagonism of the stimulatory effects of Gβγ on the activity of phospholipase Cβ2 (phospholipase C-β2): antagonized
